molecular target: T1, ΔF508 mutant CFTR (Homo sapiens, UniProt P13569, DEL508-508); assay: Fluorescence Assay of ΔF508 mutant CFTR activity (halide-sensitive YFP quenching by iodide influx in FRT cells); format: cell-based; parameters: key: fold of mean activity with forskolin alone (I− quenching rate); conditions: test compounds 20 μM with forskolin 20 μM, 20 min; FRT cells expressing ΔF508-CFTR and YFP-H148Q/I152L, incubated at 27° C. 20-24 h; rate of fluorescence quenching by I−, normalized to mean activity with forskolin alone
T1 construct: expressed in transfected cells; host or cells: Fischer rat thyroid (FRT) cells, co-expressing the halide-sensitive YFP-H148Q/I152L
Description: The ΔF508 mutant CFTR activities of the CFTR modulators are detected using the Fluorescence Assay developed by Pedemonte (Pedemonte N., et al., Antihypertensive 1,4-dihydropyridines as correctors of the cystic fibrosis transmembrane conductance regulator channel gating defect caused by cystic fibrosis mutations, Mol. Pharmacol., 2005, 68, 1736-1746).
Fischer rat thyroid (FRT) cells, stably transfected with ΔF508 were retransfected with the YFP-H148Q/I152L fluorescent protein. The cells were plated (100,000 cells/well) on black 96-well microplates with clear plastic bottom (Corning Life Sciences, Acton, Mass.).
The 96-well microplates containing FRT cells expressing F508-CFTR and the halide-sensitive YFP were incubated at 27° C. for 20 to 24 h to allow rescue of the mutant protein to the plasma membrane. After incubation, cells were washed with PBS (containing 137 mM NaCl, 2.7 mM KCl, 8.1 mM Na2HPO4, 1.5 mM KH2PO4, 1 mM CaCl2, and 0.5 mM MgCl2) and stimulated for 20 min with forskolin (20 μM) and test compounds (20 μM) in a final volume of 60 μl. Microplates were then transferred to a microplate reader for CFTR activity determination. Each assay consisted of a continuous 14-s fluorescence reading (5 points per second) with 2 s before and 12 s after injection of 165 μl of an iodide-containing solution (PBS with Cl^− replaced by I^−). Final iodide concentration in the wells was 100 mM. […] To determine I^− influx rate, the final 11 s of the data for each well were fitted with an exponential function to extrapolate initial slope. CFTR activity was determined by measuring the rate of fluorescence quenching induced by extracellular addition of I^−. Data are normalized to the mean activity measured in the presence of forskolin alone.

T1 sequence (P13569 with tags, fused parts or gaps DEL508-508): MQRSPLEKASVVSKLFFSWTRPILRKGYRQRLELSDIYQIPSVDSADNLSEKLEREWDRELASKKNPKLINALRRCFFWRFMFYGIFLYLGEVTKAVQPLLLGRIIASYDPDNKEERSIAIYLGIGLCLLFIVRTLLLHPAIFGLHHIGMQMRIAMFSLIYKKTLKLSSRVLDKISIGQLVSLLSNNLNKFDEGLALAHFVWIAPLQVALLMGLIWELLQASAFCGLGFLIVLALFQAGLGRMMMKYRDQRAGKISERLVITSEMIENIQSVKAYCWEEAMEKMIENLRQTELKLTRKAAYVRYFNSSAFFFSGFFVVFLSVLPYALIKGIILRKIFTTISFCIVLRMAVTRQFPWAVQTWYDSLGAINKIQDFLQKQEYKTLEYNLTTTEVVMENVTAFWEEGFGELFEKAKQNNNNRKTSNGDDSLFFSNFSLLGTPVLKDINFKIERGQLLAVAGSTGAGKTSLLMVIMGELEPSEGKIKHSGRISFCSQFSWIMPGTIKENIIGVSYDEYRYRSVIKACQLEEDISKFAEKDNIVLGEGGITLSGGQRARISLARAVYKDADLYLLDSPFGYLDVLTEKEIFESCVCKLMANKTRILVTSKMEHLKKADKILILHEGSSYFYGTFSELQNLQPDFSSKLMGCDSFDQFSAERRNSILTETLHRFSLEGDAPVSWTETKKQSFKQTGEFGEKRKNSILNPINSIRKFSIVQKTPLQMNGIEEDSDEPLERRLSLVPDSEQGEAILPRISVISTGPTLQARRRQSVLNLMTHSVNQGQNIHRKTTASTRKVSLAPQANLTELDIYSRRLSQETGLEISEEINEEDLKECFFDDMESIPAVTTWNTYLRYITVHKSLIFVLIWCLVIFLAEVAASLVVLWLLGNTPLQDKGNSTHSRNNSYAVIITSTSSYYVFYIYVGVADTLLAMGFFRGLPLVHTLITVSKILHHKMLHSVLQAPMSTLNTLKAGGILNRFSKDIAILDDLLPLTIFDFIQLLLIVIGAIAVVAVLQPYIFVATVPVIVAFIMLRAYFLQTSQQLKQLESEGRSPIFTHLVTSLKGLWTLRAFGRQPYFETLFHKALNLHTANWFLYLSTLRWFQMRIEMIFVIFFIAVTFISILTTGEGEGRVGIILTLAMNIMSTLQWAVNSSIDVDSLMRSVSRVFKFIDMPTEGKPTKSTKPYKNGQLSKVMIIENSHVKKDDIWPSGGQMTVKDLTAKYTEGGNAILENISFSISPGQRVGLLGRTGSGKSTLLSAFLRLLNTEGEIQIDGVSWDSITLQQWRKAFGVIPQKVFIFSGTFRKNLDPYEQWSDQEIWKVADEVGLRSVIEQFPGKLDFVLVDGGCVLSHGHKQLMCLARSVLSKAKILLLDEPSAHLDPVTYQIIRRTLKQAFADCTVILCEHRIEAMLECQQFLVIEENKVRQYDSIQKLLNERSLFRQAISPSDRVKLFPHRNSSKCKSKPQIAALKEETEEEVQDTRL

CFTR Activity	Structure (SMILES)
2.2	Cl.NC1CCC(Oc2ccncc2NC(=O)c2ccc(F)c(-c3c(F)cccc3F)n2)CC1 (centres unmarked) [Example 10, N-(4-(((1r,4r)-4-aminocyclohexyl)oxy)pyridin-3-yl)-6-(2,6-difluorophenyl)-5-fluoropicolinamide hydrochloride]
2.3	Cl.O=C(Nc1cnccc1OCC1CCNCC1)c1ccc(C(F)(F)F)c(-c2c(F)cccc2F)n1 [Example 43, 6-(2,6-difluorophenyl)-N-(4-(piperidin-4-ylmethoxy)pyridin-3-yl)-5-(trifluoromethyl)picolinamide hydrochloride]
1.4	Cl.O=C(Nc1cnccc1OCC1CCNCC1)c1ccc(F)c(-c2c(F)cccc2F)n1 [Example 1, 6-(2,6-difluorophenyl)-5-fluoro-N-(4-(piperidin-4-ylmethoxy)pyridin-3-yl)picolinamide hydrochloride]
5.4	Cl.Nc1cc(C(F)(F)F)c(-c2c(F)cccc2F)nc1C(=O)Nc1cnccc1O[C@H]1CC[C@H](N)CC1 [Example 52]
0.1	CC(C)(O)CCCOc1ccncc1NC(=O)c1ccc(F)c(-c2c(F)cccc2F)n1 [Example 20, 6-(2,6-difluorophenyl)-5-fluoro-N-(4-((4-hydroxy-4-methylpentyl)oxy)pyridin-3-yl)picolinamide]
4.8	Cl.Nc1cc(F)c(-c2c(F)cccc2F)nc1C(=O)Nc1cnccc1OC1CCCC(N)C1 (centres unmarked) [Example 37, 3-amino-N-(4-((3-aminocyclohexyl)oxy)pyridin-3-yl)-6-(2,6-difluorophenyl)-5-fluoropicolinamide hydrochloride]
1.7	Cl.Nc1cc(F)c(-c2ccccc2)nc1C(=O)Nc1cnccc1OC1CCNC1 (centres unmarked) [Example 38, 3-amino-5-fluoro-6-phenyl-N-(4-(pyrrolidin-3-yloxy)pyridin-3-yl)picolinamide hydrochloride]
4.5	Cl.Nc1cc(F)c(-c2c(F)cccc2F)nc1C(=O)Nc1cnccc1O[C@H]1CC[C@H](N)CC1 [Example 27, 3-amino-N-(4-(((1r,4r)-4-aminocyclohexyl)oxy)pyridin-3-yl)-6-(2,6-difluorophenyl)-5-fluoropicolinamide hydrochloride]
0.5	Cl.O=C(Nc1cnccc1OCC1CCNC1)c1ccc(F)c(-c2c(F)cccc2F)n1 (centres unmarked) [Example 8, 6-(2,6-difluorophenyl)-5-fluoro-N-(4-(pyrrolidin-3-ylmethoxy)pyridin-3-yl)picolinamide hydrochloride]
1.6	Cl.NCC(CCl)COc1ccncc1NC(=O)c1ccc(F)c(-c2c(F)cccc2F)n1 (centres unmarked) [Example 30, N-(4-(3-amino-2-(chloromethyl)propoxy)pyridin-5-yl)-6-(2,6-difluorophenyl)-5-fluoropicolinamide hydrochloride]
2.0	COc1cccc(F)c1-c1nc(C(=O)Nc2cnccc2OC2CCCNCC2)ccc1F.Cl (centres unmarked) [Example 41, N-(4-(azepan-4-yloxy)pyridin-3-yl)-5-fluoro-6-(2-fluoro-6-methoxyphenyl)picolinamide hydrochloride]
0.9	Cl.O=C(Nc1cnccc1OC1CCNC1)c1ccc(F)c(-c2c(F)cccc2F)n1 (centres unmarked) [Example 4, 6-(2,6-difluorophenyl)-5-fluoro-N-(4-(pyrrolidin-3-yloxy)pyridin-3-yl)picolinamide hydrochloride]
5.2	Cl.Nc1cc(C(F)(F)F)c(-c2c(F)cccc2F)nc1C(=O)Nc1cnccc1OC1CCCNCC1 (centres unmarked) [Example 48, 3-amino-N-(4-(azepan-4-yloxy)pyridin-3-yl)-6-(2,6-difluorophenyl)-5-(trifluoromethyl)picolinamide hydrochloride]
2.4	Cl.NCC(CO)COc1ccncc1NC(=O)c1ccc(F)c(-c2c(F)cccc2F)n1 (centres unmarked) [Example 56, N-(4-(3-amino-2-(hydroxymethyl)propoxy)pyridin-3-yl)-6-(2,6-difluorophenyl)-5-fluoropicolinamide hydrochloride]
3.1	Cl.N[C@H]1CC[C@H](Oc2ccncc2NC(=O)c2ccc(C(F)(F)F)c(-c3c(F)cccc3F)n2)CC1 [Example 46, N-(4-(((1r,4r)-4-aminocyclohexyl)oxy)pyridin-3-yl)-6-(2,6-difluorophenyl)-5-(trifluoromethyl)picolinamide hydrochloride]
2.3	Cl.NCC(CCl)COc1ccncc1NC(=O)c1nc(-c2c(F)cccc2F)c(F)cc1N (centres unmarked) [Example 34, 3-amino-N-(4-(3-amino-2-(chloromethyl)propoxy)pyridin-3-yl)-6-(2,6-difluorophenyl)-5-fluoropicolinamide hydrochloride]
1.8	Cl.NCC(CCl)COc1ccncc1NC(=O)c1ccc(C(F)(F)F)c(-c2c(F)cccc2F)n1 (centres unmarked) [Example 54, N-(4-(3-amino-2-(chloromethyl)propoxy)pyridin-3-yl)-6-(2,6-difluorophenyl)-5-(trifluoromethyl)picolinamide hydrochloride]
2.7	Cl.O=C(Nc1cnccc1OC1CCNCC1)c1ccc(C(F)(F)F)c(-c2c(F)cccc2F)n1 [Example 45, 6-(2,6-difluorophenyl)-N-(4-(piperidin-4-yloxy)pyridin-3-yl)-5-(trifluoromethyl)picolinamide hydrochloride]
2.1	Cl.Nc1cc(F)c(-c2c(F)cccc2F)nc1C(=O)Nc1cnccc1OC1CCNC1 (centres unmarked) [Example 24, 3-amino-6-(2,6-difluorophenyl)-5-fluoro-N-(4-(pyrrolidin-3-yloxy)pyridin-3-yl)picolinamide hydrochloride]
1.1	Cl.Nc1cc(F)c(-c2c(F)cccc2F)nc1C(=O)Nc1cnccc1OC1CNC1 [Example 31, 3-amino-N-(4-(azetidin-3-yloxy)pyridin-3-yl)-6-(2,6-difluorophenyl)-5-fluoropicolinamide hydrochloride]
2.1	Cl.O=C(Nc1cnccc1OCC1CNC1)c1ccc(C(F)(F)F)c(-c2c(F)cccc2F)n1 [Example 44, N-(4-(azetidin-3-ylmethoxy)pyridin-3-yl)-6-(2,6-difluorophenyl)-5-(trifluoromethyl)picolinamide hydrochloride]
5.5	Cl.NCC(CCl)COc1ccncc1NC(=O)c1nc(-c2c(F)cccc2F)c(C(F)(F)F)cc1N (centres unmarked) [Example 55, 3-amino-N-(4-(3-amino-2-(chloromethyl)propoxy)pyridin-3-yl)-6-(2,6-difluorophenyl)-5-(trifluoromethyl)picolinamide hydrochloride]
3.1	Cl.NC1CCCC(Oc2ccncc2NC(=O)c2ccc(F)c(-c3c(F)cccc3F)n2)C1 (centres unmarked) [Example 11, N-(4-((3-aminocyclohexyl)oxy)pyridin-3-yl)-6-(2,6-difluorophenyl)-5-fluoropicolinamide hydrochloride]
0.05	O=C(Nc1cnccc1OCC1CCOCC1)c1ccc(F)c(-c2c(F)cccc2F)n1 [Example 22, 6-(2,6-difluorophenyl)-5-fluoro-N-(4-((tetrahydro-2H-pyran-4-yl)methoxy)pyridin-3-yl)picolinamide]
2.5	Cl.Nc1cc(C(F)(F)F)c(-c2ccccc2)nc1C(=O)Nc1cnccc1OC1CCNC1 (centres unmarked) [Example 53, 3-amino-6-phenyl-N-(4-(pyrrolidin-3-yloxy)pyridin-3-yl)-5-(trifluoromethyl)picolinamide hydrochloride]
0.2	CN(C)CCCOc1ccncc1NC(=O)c1ccc(F)c(-c2c(F)cccc2F)n1.Cl [Example 14, 6-(2,6-difluorophenyl)-N-(4-(3-(dimethylamino)propoxy)pyridin-3-yl)-5-fluoropicolinamide hydrochloride]

Structure (SMILES)	CFTR Activity
Cl.NCCCCOc1ccncc1NC(=O)c1ccc(F)c(-c2c(F)cccc2F)n1 [Example 15, N-(4-(4-aminobutoxy)pyridin-3-yl)-6-(2,6-difluorophenyl)-5-fluoropicolinamide hydrochloride]	0.7
CC(O)CCOc1ccncc1NC(=O)c1ccc(F)c(-c2c(F)cccc2F)n1 (centres unmarked) [Example 18, 6-(2,6-difluorophenyl)-5-fluoro-N-(4-(3-hydroxybutoxy)pyridin-3-yl)picolinamide]	0.1
O=C(Nc1cnccc1OCCCCO)c1ccc(F)c(-c2c(F)cccc2F)n1 [Example 19, 6-(2,6-difluorophenyl)-5-fluoro-N-(4-(4-hydroxybutoxy)pyridin-3-yl)picolinamide]	0.3

Reference: patent publication US10174002B2, “Pyridine derivatives as CFTR modulators” (NuBridge BioSciences, priority 2015, dated 2019)
